SMILES strings stand for the structures.

Results on 29 molecules are retold here after US7790761B2, “Blockade of voltage dependent sodium channels” (University College London, priority 2000, dated 2010).

This experiment relates to sodium channels. Put plainly: [14C]-labelled guanidine flux through sodium channels. Particulars: inhibition of flux of [14C]-labelled guanidine through sodium channels. It counts as biochemical, rat.

For orientation: IC50 means the concentration that gives 50% inhibition. Lower therefore signals greater potency. In the case of `CCn1nc(-c2cccs2)cc1C(=O)NCCc1ccccc1` [Example 16, (S)-2-Ethyl-5-thiophen-2-yl-2H-pyrazole-3-carboxylic acid phenethyl-amide], the concentration for half-maximal inhibition (IC50) came out at 13 µM.
Molecule `CC(C)(C)c1ccc(NC(=O)c2cc(-c3ccccc3)n(-c3ccc(Cl)cc3)n2)cc1` [Example 20, 1-(4-Chloro-phenyl)-5-phenyl-1H-pyrazole-3-carboxylic acid (4-tert-butyl-phenyl)-amide] gave an IC50 of 20 µM.
On to `CC(C)(C)c1cc(C(=O)NNC(=O)Nc2cccc(C(F)(F)F)c2)n(Cc2ccccc2)n1` [2-Benzyl-5-tert-butyl-2H-pyrazole-3-carboxylic arid N′-(3-trifluoromethylphenylcarbamoyl)hydrazide], for which the IC50 was 0.5 µM.
In turn, `CCn1nc(-c2cccs2)cc1C(=O)Nc1ccc(NC(C)=O)cc1` [Example 40, 2-Ethyl-5-thiophen-2-yl-2H-pyrazole-3-carboxylic acid (4-acetylamino-phenyl)-amide] registered an IC50 below 9 µM.
`CC(C)(C)c1cc(C(=O)Nc2ccc(Br)c(Cl)c2)n(Cc2ccccc2)n1` [2-Benzyl-5-tert-butyl-2H-pyrazole-3-carboxylic acid (4-bromo-3-chloro-phenyl)-amide] returned an IC50 of 3 µM.
For `CN(C)CCNC(=O)c1nn(Cc2ccccc2)c2ccccc12` [Example 47, 1-Benzyl-3-[N-(2-N,N-dimethylaminoethyl)carboxamido]indazole] the value was 63 µM; for `CCOC(=O)CSc1nnc(-c2cc(C(C)(C)C)nn2Cc2cccc(C)c2)n1C1CCCCC1` [Ethyl 2-([5-[3-(tert-butyl)-1-(3-methylbenzyl)-1H-pyrazol-5-yl]-4-cyclohexyl-4H-1,2,4-triazol-3-yl]thio)acetate], below 9 µM.
In the case of `CC(C)(C)c1cc(C(=O)Nc2ccccc2)n(Cc2ccc(Cl)cc2Cl)n1` [Example 17, 5-tert-Butyl-2-(2,4-dichloro-benzyl)-2H-pyrazole-3-carboxylic acid phenylamide], the IC50 stood at 10 µM.
As to `Cn1c(SCC(=O)C(C)(C)C)nnc1-c1cc(C(C)(C)C)nn1Cc1ccc(F)cc1` [1-{5-[5-tert-Butyl-2-(4-fluoro-benzyl)-2H-pyrazol-3-yl]-4-methyl-4H-[1,2,4]triazol-3-ylsulfanyl}-3,3-dimethyl-butan-2-one], the concentration for half-maximal inhibition (IC50) was 13 µM.
Regarding `CC(C)(C)c1cc(C(=O)NCc2ccccc2)n(Cc2ccc(Cl)cc2Cl)n1` [Example 18, 5-tert-Butyl-2-(2,4-dichloro-benzyl)-2H-pyrazole-3-carboxylic acid benzylamide], the IC50 is 9 µM.
Molecule `CC(=O)Nc1ccc(NC(=O)c2cc(C(C)(C)C)nn2Cc2ccccc2)cc1` [Example 43, 2-Benzyl-5-tert-butyl-2H-pyrazole-3-carboxylic acid (4-acetylamino-phenyl)-amide] came in with an IC50 of 16 µM.
For `C#CCSc1nnc(-c2cc(C(C)(C)C)nn2Cc2ccc(Cl)cc2Cl)n1-c1ccccc1` [3-[3-(tert-Butyl)-1-(2,4-dichlorobenzyl)-1H-pyrazol-5-yl]-4-phenyl-5-(prop-2-ynylthio)-4H-1,2,4-tziazole] the value was 18 µM; for `Cc1cccc(Cn2nc(C(C)(C)C)cc2-c2nnc(S)n2C2CCCCC2)c1` [5-[3-(tert-Butyl)-1-(3-methylbenzyl)pyrazol-5-yl]-4-cyclohexyl-1,2,4-triazole-3-thiol], below 9 µM; for `CC(=O)Nc1ccc(NC(=O)c2cc(C)n(C(C)(C)C)n2)cc1` [Example 36, 1-tert-Butyl-5-methyl-1H-pyrazole-3-carboxylic acid (4-acetylamino-phenyl)-amide], 23 µM.
The molecule `CC(=O)Nc1ccc(NC(=O)c2cc(C)n(Cc3ccc(C)cc3)n2)cc1` [Example 38, 5-Methyl-1-(4-methyl-benzyl)-1H-pyrazole-3-carboxylic acid (4-acetylamino-phenyl)-amide] displayed a concentration for half-maximal inhibition (IC50) of 14 µM.
`CN(C)c1ccc(NC(=O)c2cc(C(C)(C)C)nn2Cc2ccccc2)cc1` [Example 27, 2-Benzyl-5-tert-butyl-2H-pyrazole-3-carboxylic acid (4-dimethylamino-phenyl)-amide]: the 50% inhibitory concentration (IC50) is below 9 µM.
To `Cc1ccc(Cn2nc(C)cc2C(=O)Nc2cccc(C(F)(F)F)c2)cc1` [5-Methyl-2-(4-methyl-benzyl)-2H-pyrazole-3-carboxylic acid (3-trifluoromethyl-phenyl)-amide] belongs 6 µM; to `O=C(Nc1ccccc1)c1cc(-c2ccccc2)n(-c2ccc(Cl)cc2)n1` [Example 11, 1-(4-Chloro-phenyl)-5-phenyl-1H-pyrazole-3-carboxylic acid phenylamide], 18 µM; to `CN(C)c1ccc(NC(=O)c2cc(-c3ccccc3)n(-c3ccc(Cl)cc3)n2)cc1` [Example 19, 1-(4-Chloro-phenyl)-5-phenyl-1H-pyrazole-3-carboxylic acid (4-dimethylamino-phenyl)-amide], 5 µM.
For `CCn1nc(-c2cccs2)cc1C(=O)Nc1nc(-c2cccnc2)cs1` [Example 42, 2-Ethyl-5-thiophen-2-yl-2H-pyrazole-3-carboxylic acid (4-(pyridin-3-yl)thiazol-2-yl)-amide] the value was below 9 µM.
To `CC(C)(C)c1cc(C(=O)Nc2ccc(Cl)cc2)n(Cc2ccccc2)n1` [2-Benzyl-5-tert-butyl-2H-pyrazole-3-carboxylic acid (4-chloro-phenyl)-amide] belongs 4.4 µM; to `COc1ccc(Cc2noc(NC(=O)c3cc(C(C)(C)C)nn3C)n2)cc1` [Example 45, 5-tert-Butyl-2-methyl-2H-pyrazole-3-carboxylic acid [3-(4-methoxy-benzyl)-[1,2,4]oxadiazol-5-yl]-amide], 19 µM; to `CC(C)(C)c1cc(C(=O)Nc2ccccc2)n(Cc2ccccc2)n1` [Example 9, 2-Benzyl-5-tert-butyl-2H-pyrazole-3-carboxylic acid phenylamide], below 9 µM.
As for `Cc1cc(C(=O)Nc2ccc(Cl)c(Cl)c2)n(C(C)(C)C)n1` [Example 22, 2-tert-Butyl-5-methyl-2H-pyrazole-3-carboxylic acid (3,4-dichloro-phenyl)-amide], the half-inhibitory concentration (IC50) is below 9 µM.
The molecule `CC(C)(C)c1cc(NC(=O)c2cc(-c3ccccc3)n(-c3ccc(Cl)cc3)n2)no1` [Example 30, 1-(4-Chloro-phenyl)-5-phenyl-1H-pyrazole-3-carboxylic acid (5-tert-butyl-isoxazol-3-yl)-amide] yielded a concentration for half-maximal inhibition (IC50) of 15 µM.
In turn, `CC(C)(C)c1cc(C(=O)Nc2cccc(-c3cnco3)c2)n(Cc2ccccc2)n1` [Example 28, 2-Benzyl-5-tert-butyl-2H-pyrazole-3-carboxylic acid (3-oxazol-5-yl-phenyl)-amide] yielded an IC50 below 9 µM.
For `Cc1cc(C(=O)Nc2ccc(Cl)nc2)nn1C(C)(C)C` [Example 35, 1-tert-Butyl-5-methyl-1H-pyrazole-3-carboxylic acid (6-chloro-pyridin-3-yl)-amide] the value was 5 µM; for `Cn1nc(C(C)(C)C)cc1C(=O)Nc1nc(-c2cccnc2)cs1` [Example 44, 5-tert-Butyl-2-methyl-2H-pyrazole-3-carboxylic acid (4-(pyridin-3-yl)thiazol-2-yl)-amide], below 9 µM.
In turn, `CC(C)(C)c1ccc(NC(=O)c2cc(C(C)(C)C)nn2Cc2ccccc2)cc1` [Example 25, 2-Benzyl-5-tert-butyl-2H-pyrazole-3-carboxylic acid (4-tert-butyl-phenyl)-amide] had a half-maximal inhibitory concentration (IC50) of 18 µM.
